Converted amounts (≈) assume the structure as drawn. Like-named read-outs stand apart in the source and are kept apart here.
What was measured:
A. fumigatus [1] = experiment: Minimum fungicidal concentration (MFC); type: cell-based; settings: Aspergillus fumigatus, read-out: MBC/MFC
A. niger [2] = experiment: MIC by tube dilution method; type: cell-based; settings: Aspergillus niger, 168 h, 7 days at 25 °C, read-out: MIC
A. fumigatus [3] = experiment: MIC by tube dilution method; type: cell-based; settings: Aspergillus fumigatus, 168 h, 7 days at 25 °C, read-out: MIC
B. subtilis [4] = experiment: MIC by tube dilution method; type: cell-based; settings: Bacillus subtilis, 24 h at 37 °C, read-out: MIC
K. pneumonia [5] = experiment: MIC by tube dilution method; type: cell-based; settings: 24 h at 37 °C
S. enterica [6] = experiment: Minimum bactericidal concentration (MBC); type: cell-based; settings: Salmonella enterica, read-out: MBC/MFC
Method: After MIC assessment, the indole derivatives (DS1–DS21), were additionally evaluated for MBC and MFC values. […] The 10–15 ml of nutrient agar and Sabouraud dextrose agar was added to the petri plates for bacterial and fungal samples respectively with gentle shaking of plates in order to mix the culture throughout the media. Allowed the media to solidify. The petri plates were then incubated for the predefined time and temperature as referenced already for bacterial and fungal cultures respectively. The plates were then investigated visually for the development of microbial growth. The MBC and MFC were stated as the minimum concentration of the compounds in aliquots showing no visual growth after incubation.

S. aureus [7] = experiment: Minimum bactericidal concentration (MBC); type: cell-based; settings: Staphylococcus aureus
S. enterica [8] = experiment: MIC by tube dilution method; type: cell-based; settings: Salmonella enterica, 24 h, 24 h at 37 °C, read-out: MIC
B. subtilis [9] = experiment: Minimum bactericidal concentration (MBC); type: cell-based; settings: Bacillus subtilis
MDA MB 231 = experiment: MTT cell proliferation assay; type: cell-based; settings: MDA MB 231 breast cancer, 48 h of drug treatment
Method: (§1) The cell lines used in study were initially procured from the National Centre for Cell Sciences (NCCS), Pune, India, and maintained in DMEM. The cell line was cultured in 25 cm^2 tissue culture flask with DMEM supplemented with 10% FBS, sodium bicarbonate, L-glutamine, and antibiotic solution containing: streptomycin (100 μg/ml), penicillin (100 U/ml). Cultured cell line was kept at 37 °C in a humidified 5% CO2 incubator (VWR, USA).
(§2) The compounds found to have good antimicrobial potential were then screened for their cytotoxicity using MTT […]) assay. 1 × 10^4 cells/well were seeded in 100 µl DMEM/MEM, supplemented with 10% FBS in each well of 96-well microculture plates and incubated for 24 h at 37 °C in a CO2 incubator. After incubation, all the prepared/synthesized compounds were added to the cells at 10, 25, 50 and 100 µg concentrations for 48 h. After 48 h of drug treatment, 10 µl MTT (5 mg/ml) was added to each well and the plates were further incubated for 4 h. Then the supernatant from each well was carefully removed, formazan crystals were dissolved in 100 µl of DMSO and absorbance at 570 nm wavelength was recorded on an ELISA reader. The IC50 value was calculated using the linear regression equation i.e. Y = Mx + C. Here, Y = 50, M and C values were derived from the viability graph. The assay was performed in triplicate.

K562 = experiment: MTT cell proliferation assay; type: cell-based; settings: Homo sapiens, K562 leukemia, 48 h of drug treatment
Method: as §1, §2

HCT 116 = experiment: MTT cell proliferation assay; type: cell-based; settings: Homo sapiens, HCT-116, 48 h, HCT 116 colon cancer, 48 h of drug treatment
Method: as §1, §2

E. coli [10] = experiment: MIC by tube dilution method; type: cell-based; settings: 24 h at 37 °C
HEK-293 = experiment: MTT cell proliferation assay, normal cells; type: cell-based; settings: Homo sapiens, HEK293, HEK-293 normal cells, 48 h of drug treatment
Method: as §1, §2

S. aureus [11] = experiment: MIC by tube dilution method; type: cell-based; settings: Staphylococcus aureus, 24 h at 37 °C, read-out: MIC
A. niger [12] = experiment: Minimum fungicidal concentration (MFC); type: cell-based; settings: Aspergillus niger, read-out: MBC/MFC
E. coli [13] = experiment: Minimum bactericidal concentration (MBC); type: cell-based; settings: Escherichia coli
K. pneumonia [14] = experiment: Minimum bactericidal concentration (MBC); type: cell-based; settings: Klebsiella pneumoniae
[15] = Klebsiella pneumoniae, 24 h, read-out: MIC
[16] = Homo sapiens, MDA-MB-231, 48 h, read-out: IC50
[17] = Escherichia coli, 24 h, read-out: MIC

| SMILES | melting point [°C] | MFC (A. fumigatus [1]) [µg/mL] | MIC (A. niger [2]) [µg/mL] | MIC (A. fumigatus [3]) [µg/mL] | MIC (B. subtilis [4]) [µg/mL] | MIC (K. pneumonia [5]; [15]) [µg/mL] | MBC (S. enterica [6]; S. enterica, MBC) [µg/mL] | MBC (S. aureus [7]) [µg/mL] | MIC (S. enterica [8]) [µg/mL] | MBC (B. subtilis [9]) [µg/mL] | IC50 (MDA MB 231; [16]) [µg/mL] | IC50 (K562) [µg/mL] | IC50 (HCT 116) [µg/mL] | MIC (E. coli [10]; [17]) [µg/mL] | IC50 (HEK-293) [µg/mL] | MIC (S. aureus [11]) [µg/mL] | MFC (A. niger [12]) [µg/mL] | MBC (E. coli [13]) [µg/mL] | MBC (K. pneumonia [14]) [µg/mL] | IC50 (MDA MB 231) [µg/mL] | further results |
| --- | --- | --- | --- | --- | --- | --- | --- | --- | --- | --- | --- | --- | --- | --- | --- | --- | --- | --- | --- | --- | --- |
| C/C(=N/c1c(C)n(C)n(-c2ccccc2)c1=O)c1ccc(/N=N\c2c[nH]c3ccc([N+](=O)[O-])cc23)cc1 [DS-6, 1,5-Dimethyl-4-((Z)-(1-(4-((Z)-(5-nitro-1H-indol-3-yl)diazenyl)phenyl)ethylidene)amino)-2-phenyl-1H-pyrazol-3(2H)-one] | 170 to 175 | 125 (≈ 253 µM) | 62.5 (≈ 127 µM) | 31.2 (≈ 63.3 µM) | 31.2 (≈ 63.3 µM) | 7.81 (≈ 15.8 µM) | 31.2 (≈ 63.3 µM) | 31.2 (≈ 63.3 µM) | 31.2 (≈ 63.3 µM) | 62.5 (≈ 127 µM) | 119 ± 1.92 (≈ 241 µM) | 188 ± 1.94 (≈ 380 µM) | 139 ± 4.29 (≈ 282 µM) | 1.95 (≈ 3.95 µM) | 257.8 ± 0.57 (≈ 522 µM) | 31.2 (≈ 63.3 µM) | 125 (≈ 253 µM) | 3.9 to 7.81 (≈ 7.9 to 15.8 µM) | – | – | – |
| C/C(=N/CCNc1cccc2ccccc12)c1ccc(/N=N\c2c[nH]c3ccccc23)cc1 [DS-20, (Z)-N1-(1-(4-((Z)-(1H-Indol-3-yl)diazenyl)phenyl)ethylidene)-N2-(naphthalen-1-yl)ethane-1,2-diamine] | 110 to 115 | 125 (≈ 290 µM) | 62.5 (≈ 145 µM) | 62.5 (≈ 145 µM) | 125 (≈ 290 µM) | 3.9 (≈ 9.04 µM) | 31.2 (≈ 72.4 µM) | 62.5 (≈ 145 µM) | 15.6 (≈ 36.2 µM) | 125 (≈ 290 µM) | 19 to 65 (≈ 44 to 151 µM) | 136 ± 4.74 (≈ 315 µM) | – | 1.95 (≈ 4.52 µM) | 233 ± 4.68 (≈ 539 µM) | 125 (≈ 290 µM) | 125 (≈ 290 µM) | – | 15.6 (≈ 36.2 µM) | 20.95 ± 1.93 (≈ 48.5 µM) | – |
| CCOC(=O)c1c(/N=C(/C)c2ccc(/N=N\c3c[nH]c4ccccc34)cc2)sc2c1CCCC2 [DS-2, Ethyl 2-((Z)-(1-(4-((Z)-(1H-indol-3-yl)diazenyl)phenyl)ethylidene)amino)-4,5,6,7-tetrahydrobenzo[b]thiophene-3-carboxylate] | 260 to 265 | 62.5 (≈ 133 µM) | 62.5 (≈ 133 µM) | 15.6 (≈ 33.2 µM) | 31.2 (≈ 66.4 µM) | 31.2 (≈ 66.4 µM) | – | 125 (≈ 266 µM) | 15.6 (≈ 33.2 µM) | 125 (≈ 266 µM) | 57.6 ± 3.68 (≈ 122 µM) | 140 ± 4.4 (≈ 298 µM) | 117 ± 4.28 (≈ 248 µM) | 15.6 (≈ 33.2 µM) | – | 62.5 (≈ 133 µM) | 125 (≈ 266 µM) | 16.2 (≈ 34.5 µM) | 62.5 (≈ 133 µM) | – | MBC (S. enterica [6]): 15.6 µg/mL (≈ 33.2 µM) |
| C/C(=N/c1ccc(C(=O)O)cc1)c1ccc(/N=N\c2c[nH]c3ccccc23)cc1 [DS-14, 4-((Z)-(1-(4-((Z)-(1H-Indol-3-yl)diazenyl)phenyl)ethylidene)amino)benzoic acid] | 205 to 210 | 125 (≈ 327 µM) | 62.5 (≈ 163 µM) | 31.2 (≈ 81.7 µM) | 31.2 (≈ 81.7 µM) | 1.95 to 3.9 (≈ 5.1 to 10.2 µM) | 7.81 (≈ 20.4 µM) | 62.5 (≈ 163 µM) | 1.95 to 3.9 (≈ 5.1 to 10.2 µM) | 62.5 (≈ 163 µM) | 19 to 65 (≈ 49.7 to 170 µM) | 112 ± 3.64 (≈ 294 µM) | – | 1.95 to 3.9 (≈ 5.1 to 10.2 µM) | 244 ± 3.78 (≈ 638 µM) | 62.5 (≈ 163 µM) | 125 (≈ 327 µM) | – | 3.9 to 7.81 (≈ 10.2 to 20.4 µM) | 19.10 ± 1.43 (≈ 49.9 µM) | MIC (K. pneumonia [5]): 1.95 µg/mL (≈ 5.1 µM); MIC (E. coli [10]): 3.90 µg/mL (≈ 10.2 µM) |
| C/C(=N/c1nc2ccccc2s1)c1ccc(/N=N\c2c[nH]c3ccc([N+](=O)[O-])cc23)cc1 [DS-21, (Z)-N-(1-(4-((Z)-(5-Nitro-1H-indol-3-yl)diazenyl)phenyl)ethylidene)benzo[d]thiazol-2-amine] | 130 to 135 | 125 (≈ 284 µM) | 125 (≈ 284 µM) | 125 (≈ 284 µM) | 31.2 (≈ 70.9 µM) | 3.9 (≈ 8.85 µM) | 31.2 (≈ 70.9 µM) | 62.5 (≈ 142 µM) | 31.2 (≈ 70.9 µM) | 62.5 (≈ 142 µM) | 49.3 ± 4.15 (≈ 112 µM) | 158 ± 3.73 (≈ 359 µM) | 125 ± 1.33 (≈ 283 µM) | 3.9 (≈ 8.85 µM) | 142 ± 3.25 (≈ 322 µM) | 62.5 (≈ 142 µM) | 125 (≈ 284 µM) | – | – | – | – |
